≈ marks a conversion by molar mass, not a printed value. Calls of active or inactive are those of the source. The rule behind the calls is not given here.
How the values were obtained:
DC3F/ADX [1] = test: Binding affinity to P-gp isolated from chinese hamster DC3F/ADX cells assessed as increase in ADP formation by drug-P-gp interaction assay relative to basal; format: cell-free; conditions: Cricetulus griseus
Candida albicans [2] = test: Antifungal activity against Candida albicans CAI4 at 0.2 mg/ml after 48 hrs by spot assay; format: functional, organism-based
Candida albicans [3] = test: Antifungal activity against Candida albicans CAI4 at 0.5 mg/ml after 48 hrs by spot assay; format: functional, organism-based
Candida albicans [4] = test: Antifungal activity against Candida albicans CAI4 after 48 hrs; format: functional; conditions: CAI4, 48 h
Candida albicans [5] = test: Antifungal activity against Candida albicans CAI4 at 6 ug/disk after 24 hrs by disk diffusion assay; format: functional; conditions: CAI4, 24 h, read-out: DIZ
Candida albicans [6] = test: Inhibition of cell-wall integrity in Candida albicans CAI4 assessed as ratio of glucose/ATP-driven Rhodamine-6G efflux to Rhodamine-6G efflux in absence of glucose/ATP at 230 ug/ml relative to control; format: functional, organism-based
DC3F/ADX [7] = test: Binding affinity to P-gp isolated from chinese hamster DC3F/ADX cells assessed as increase in ADP formation at 0.05 uM by drug-P-gp interaction assay relative to basal; format: cell-free; conditions: Cricetulus griseus
Candida albicans [8] = test: Antifungal activity against Candida albicans CAI4 at 160 ug/ml in presence of cell-wall toxin CFW; format: functional, organism-based
Candida albicans [9] = test: Inhibition of cell-wall integrity in Candida albicans CAI4 assessed as increase in Rhodamine-6G influx at 230 ug/ml; format: functional, organism-based
Candida albicans [10] = test: Inhibition of cell-wall integrity in Candida albicans CAI4 assessed as increase in Rhodamine-6G efflux at 230 ug/ml in absence of glucose; format: functional, organism-based
Candida albicans [11] = test: Antifungal activity against Candida albicans CAI4 at 200 ug/disk after 24 hrs by disk diffusion assay; format: functional; conditions: CAI4, 24 h, read-out: DIZ
Candida albicans [12] = test: Antifungal activity against Candida albicans CAI4 at 160 ug/ml in presence of cell-wall toxin CR; format: functional, organism-based
Candida albicans [13] = test: Antifungal activity against Candida albicans CAI4 at 0.313 mg/ml after 48 hrs by spot assay; format: functional, organism-based

Cc1cccc2c1c(=O)c1ccccc1n2CC(O)CN1CCOCC1 (configuration not stated) was tested. Which Activity (DC3F/ADX [1]) did it give?
Its Activity is “Active”.

O=C(O)c1cccc2c(=O)c3ccccc3n(CC(O)CN3CCOCC3)c12 (configuration not stated) was tested. Which Activity (DC3F/ADX [1]) did it give?
The Activity was “Active”.

What about the Activity (Candida albicans [2]) of the same compound?
Its Activity is “inactive”.

And the Activity (Candida albicans [3])?
Its Activity is “inactive”.

And the MIC80 (Candida albicans [4])?
Its MIC80 is 132 µg/mL (≈ 345 µM).

For O=C(O)c1cccc2c(=O)c3ccccc3n(CC(O)CN3CCCCC3)c12 (configuration not stated), which Activity (DC3F/ADX [1]) is on record?
The Activity was “Active”.

What about the Activity (Candida albicans [2]) of the same compound?
The Activity was “inactive”.

And the Activity (Candida albicans [3])?
Its Activity is “inactive”.

What about the MIC80 (Candida albicans [4]) of the same compound?
Its MIC80 is 405 µg/mL (≈ 1060 µM).

For Cc1cccc2c1c(=O)c1ccccc1n2CC(O)CN1CCCCC1 (configuration not stated), which Activity (DC3F/ADX [1]) is on record?
Its Activity is “Active”.

Clc1ccc(COC(Cn2ccnc2)c2ccc(Cl)cc2Cl)c(Cl)c1 (configuration not stated) [MICONAZOLE] was tested. Which zone of inhibition at 6 µg/disc (Candida albicans [5]) did it give?
The zone of inhibition at 6 µg/disc was 12 mm.

O=C(O)c1cccc2c(=O)c3ccccc3n(CC(O)CN3CCCC3)c12 (configuration not stated) was tested. Which Activity (DC3F/ADX [1]) did it give?
The Activity was “Active”.

Which zone of inhibition at 6 µg/disc (Candida albicans [5]) does the source give for OC(Cn1cncn1)(Cn1cncn1)c1ccc(F)cc1F [FLUCONAZOLE] here?
The zone of inhibition at 6 µg/disc was 15 mm.

How did the Activity (DC3F/ADX [1]) turn out when O=C(O)c1cccc2c(=O)c3ccccc3n(CC(O)CN3CCC(N4CCCCC4)CC3)c12 (configuration not stated) was run?
Its Activity is “Active”.

And the Activity (Candida albicans [6])?
The Activity was “inactive”.

What about the Activity (DC3F/ADX [7]) of the same compound?
Its Activity is 33%.

And the Activity (Candida albicans [8])?
Its Activity is “Active”.

And the Activity (Candida albicans [9])?
Its Activity is “Active”.

What about the Activity (Candida albicans [10]) of the same compound?
The Activity was “Active”.

What about the zone of inhibition at 200 µg/disc (Candida albicans [11]) of the same compound?
Its zone of inhibition at 200 µg/disc is 10 mm.

And the Activity (Candida albicans [12])?
The Activity was “Active”.

What about the Activity (Candida albicans [13]) of the same compound?
The Activity was “Active”.

And the MIC80 (Candida albicans [4])?
The MIC80 was 234 µg/mL (≈ 505 µM).

With Cc1cccc2c1c(=O)c1ccccc1n2CC(O)CN1CCC(N2CCCCC2)CC1 (configuration not stated) as the compound, how does the Activity (DC3F/ADX [1]) read?
The Activity was “Active”.

How did the Activity (DC3F/ADX [1]) turn out when Cc1cccc2c1c(=O)c1ccccc1n2CC(O)CN1CCCC1 (configuration not stated) was run?
Its Activity is “Active”.

O=C(O)c1cccc2c(=O)c3ccccc3[nH]c12 was tested. Which Activity (DC3F/ADX [1]) did it give?
The Activity was “Active”.

How did the Activity (DC3F/ADX [1]) turn out when O=C(O)c1cccc2c(=O)c3ccccc3n(CC3CO3)c12 (configuration not stated) was run?
Its Activity is “Active”.
